Reference: patent publication US12553882B2, “Use of PAK4 and CRTC1 for treatment or diagnosis of brain degenerative disease” (CHUNGBUK NATIONAL UNIVERSITY INDUSTRY-ACADEMIC COOPERATION …, priority 2017, dated 2026)

What was measured:
TH-positive DA neurons = assay: PF-3758309 stereotaxic injection into the SN, analysis of TH-positive neurons and fibers; type: in vivo, rat; conditions: PF-3758309 injected into the SN (substantia nigra)
Method: Mice were anesthetized with chloral hydrate (360 mg/kg, intraperitoneal [i.p.] injection) and then placed in a stereotaxic instrument (Kopf Instruments, Tujunga, CA, USA). The injection site coordinates in the right SN were 5.3 mm AP, 2.0 mm ML and 7.6 mm DV, from the bregma. Then, PF-3758309 (0.5 μg) was injected using a Hamilton syringe needle (33-gauge needle). In this case, the flow rate of the injection solution (2 ul) was allowed to be at 0.25 ul/min. After the injection, the syringe needle was maintained as it is for 5 more minutes to suppress the reflux of the solution. […]
Human brain tissue slices embedded with paraffin were deparaffinized with xylene. […] Samples were reacted with Alexa 488- or Alexa 594-conjugated secondary antibodies for fluorescence microscopic analysis. […] For Nissl-staining, SN tissue was fixed on a gelatin-coated slide and dried at room temperature for 1 hour, stained with 0.5% cresyl violet, dehydrated, covered with a cuff slip and analyzed using a bright field microscopy (Nikon).
The unbiased stereological analysis of the total number of TH+ neurons was performed using an optical fractionator method and Stereo Investigator software (MBF Bioscience, Williston, VT). The method is an assay which is not influenced by reference volume (SNpc) or size of counted elements (neurons). The total number of neurons was calculated by Optical Fractionator Equation. […]

rat PAK4 = assay: Knock-down of PAK4 by lentiviral shRNA; type: in vivo; conditions: lentiviral rat PAK4 hCMV-TurboGFP shRNA
Text: Lentiviral rat PAK4 hCMV-TurboGFP shRNAs were purchased from Dharmacon and Open Biosystems. […] In this case, lentiviral shRNA control particles (#S-005000-01) were used as a control.
Protein extracts were obtained by conventional protein extraction methods, and immunoblots were visualized using HRP-conjugated secondary antibodies to IgG and chemiluminescent substrate (SuperSignal Ultra; Pierce). For quantitative analysis of protein levels, each band density of the immunoblots was quantitatively analyzed using the National Institutes of Health ImageJ software (National institutes of Health).
As a method for checking the action of PAK4 in Parkinson's disease, the present inventors injected a lent viral green fluorescent protein (GFP) small hairpin control (shCtrl) or lentiviral-GFP-shPAK4 construct into the right striatum of the rat brain to analyze the role of PAK4 in Parkinson's disease.

rat CRTC1 = assay: Knock-down of CRTC1 by lentiviral shRNA, 6-OHDA rat model; type: in vivo; conditions: lentiviral rat CRTC1 hCMV-TurboGFP shRNA

Row | Molecule | knock-down of the expression of PAK4 (rat PAK4) | knock-down of the expression of CRTC1 (rat CRTC1) | further results
1 | Cc1nc(Nc2[nH]nc3c2CN(C(=O)N[C@H](CN(C)C)c2ccccc2)C3(C)C)c2sccc2n1 [PF-3758309] | – | – | TH-positive DA neurons (TH-positive DA neurons): decreased
2 | SH-082018-01: lentiviral rat PAK4 shRNA, TTACGCAAGTCCATCTTCT, Dharmacon and Open Biosystems | effectively knocked down | – | –
3 | SH-082018-02: lentiviral rat PAK4 shRNA, TGATCGAAGCCTGTGTGTA, Dharmacon and Open Biosystems | effectively knocked down | – | –
4 | SH-111776-01: lentiviral rat CRTC1 shRNA, CACGATATACTCTGTCCAC | – | effectively knocked down | –
5 | SH-111776-02: lentiviral rat CRTC1 shRNA, TCGCTAAATTTCCGCGGAT | – | effectively knocked down | –
